Consider seven compounds from the NIST ThermoML archive (doi:10.1021/je0602723).

Structures are written as SMILES. ± gives the expanded uncertainty stated by the source.

This data set is described as follows: activity coefficient (dimensionless); of the first substance listed, at infinite dilution; xn = mol fraction of the nth substance listed. As to conditions: Liquid, Chromatography, x1 = 0.

Consider `CC(C)CO` [2-methyl-1-propanol] + CCOS(=O)(=O)[O-].CCn1cc[n+](C)c1, for which the activity coefficient runs as follows: (322.7 K) 1.65 ± 0.11; (333.4 K) 1.51 ± 0.1; (343.9 K) 1.43 ± 0.09; (357.2 K) 1.24 ± 0.08; (386 K) 1.17 ± 0.07.

For the compound `CC(C)(C)O` [2-methylpropan-2-ol] + CCOS(=O)(=O)[O-].CCn1cc[n+](C)c1, the activity coefficient by setting is: (302 K) 2.02 ± 0.14; (312.4 K) 1.86 ± 0.13; (322.9 K) 1.74 ± 0.12; (333.4 K) 1.64 ± 0.11; (343.9 K) 1.57 ± 0.1; (354.4 K) 1.49 ± 0.1.

Turning to `CCc1ccccc1` [ethylbenzene] + CCOS(=O)(=O)[O-].CCn1cc[n+](C)c1, the activity coefficient worked out at 9.16 ± 0.62 (354.3 K), 8.71 ± 0.59 (364.7 K), 8.21 ± 0.56 (375.1 K) and 7.77 ± 0.53 (385.7 K).

With `CCCCCCCC=O` [octanal] + CCOS(=O)(=O)[O-].CCn1cc[n+](C)c1, the activity coefficient reads like this: (303.3 K) 29.8 ± 2; (312.2 K) 28.3 ± 1.9; (322.8 K) 27.1 ± 1.9; (333.3 K) 26.1 ± 1.8; (343.8 K) 25.5 ± 1.7.

`CCCCCC(=O)OC` [methyl hexanoate] + CCOS(=O)(=O)[O-].CCn1cc[n+](C)c1: the activity coefficient (301.7 K) came out at 20.1 ± 1.4, the activity coefficient (312.4 K) worked out at 19.2 ± 1.3, the activity coefficient (333.4 K) came to 17 ± 1.2 and the activity coefficient (343.9 K) was determined as 15.9 ± 1.1.

For `CC(C)O` [propan-2-ol] + CCOS(=O)(=O)[O-].CCn1cc[n+](C)c1, the activity coefficient is 1.49 ± 0.1 (302.5 K); 1.41 ± 0.09 (312.2 K); 1.29 ± 0.08 (322.8 K); 1.22 ± 0.08 (333.4 K); 1.15 ± 0.07 (343.9 K).

Regarding `O=C1CCCCCN1` [1-aza-2-cycloheptanone] + CCOS(=O)(=O)[O-].CCn1cc[n+](C)c1, the activity coefficient is 5.1 ± 0.35 (412.3 K), 6.1 ± 0.42 (417.1 K) and 4.9 ± 0.33 (427.1 K).
